Values quoted from earlier work as cited in US20250357519A1, “APPLICATIONS OF O2-INSENSITIVE FORMATE DEHYDROGENASE” (UNIVERSITY OF MARYLAND, BALTIMORE, priority 2022, published 2025).
Read-outs that look alike come from different tables or passages of the source.

Assays:
[1] = tested on: Desulfovibrio alaskensis (Da) W-FDH1, wild-type natively-purified (W-FDH1^WT); conditions: pH 8.0, 37 °C, 7.5 mM BV, 35 nM enzyme; Mota (2011); cited from earlier work
[2] = target: T1, Desulfovibrio vulgaris Hildenborough (DvH) W-FDH1, recombinant (W-FDH1^REC), large subunit DVU0587 SEQ ID NO: 29, small subunit DVU0588 SEQ ID NO: 30 (Nitratidesulfovibrio vulgaris, UniProt Q72EJ1); conditions: cited from earlier work
T1 construct: mature large subunit lacks Tat signal peptide; literature data of Oliveira et al. reanalysed
T1 sequence (Q72EJ1 36-1005): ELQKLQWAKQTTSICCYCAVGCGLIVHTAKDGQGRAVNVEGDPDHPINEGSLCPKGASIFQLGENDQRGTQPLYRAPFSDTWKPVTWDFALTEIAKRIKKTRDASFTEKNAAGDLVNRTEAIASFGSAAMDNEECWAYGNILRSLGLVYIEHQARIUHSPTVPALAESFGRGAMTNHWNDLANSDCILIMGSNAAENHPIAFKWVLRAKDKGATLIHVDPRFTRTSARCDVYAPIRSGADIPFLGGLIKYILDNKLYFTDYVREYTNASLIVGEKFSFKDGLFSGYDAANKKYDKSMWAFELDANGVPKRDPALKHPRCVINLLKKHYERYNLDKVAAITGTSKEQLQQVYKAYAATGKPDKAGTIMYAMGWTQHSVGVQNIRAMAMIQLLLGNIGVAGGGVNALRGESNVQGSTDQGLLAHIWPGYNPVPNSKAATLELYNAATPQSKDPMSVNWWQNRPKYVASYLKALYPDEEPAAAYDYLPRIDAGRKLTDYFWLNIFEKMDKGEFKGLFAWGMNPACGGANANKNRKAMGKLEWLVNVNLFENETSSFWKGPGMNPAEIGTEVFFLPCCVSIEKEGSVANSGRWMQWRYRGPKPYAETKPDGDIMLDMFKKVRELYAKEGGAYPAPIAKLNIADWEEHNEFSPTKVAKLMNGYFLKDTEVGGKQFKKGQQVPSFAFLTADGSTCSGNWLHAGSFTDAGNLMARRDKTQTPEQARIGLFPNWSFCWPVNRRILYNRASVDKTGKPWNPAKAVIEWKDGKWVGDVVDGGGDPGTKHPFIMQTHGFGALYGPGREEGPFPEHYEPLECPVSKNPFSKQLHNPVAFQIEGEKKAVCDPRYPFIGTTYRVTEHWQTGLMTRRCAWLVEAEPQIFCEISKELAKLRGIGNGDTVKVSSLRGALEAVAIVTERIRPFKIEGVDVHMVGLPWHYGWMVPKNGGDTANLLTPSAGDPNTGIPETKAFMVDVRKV
T1 sequence (Q72EJ0 1-236 partner): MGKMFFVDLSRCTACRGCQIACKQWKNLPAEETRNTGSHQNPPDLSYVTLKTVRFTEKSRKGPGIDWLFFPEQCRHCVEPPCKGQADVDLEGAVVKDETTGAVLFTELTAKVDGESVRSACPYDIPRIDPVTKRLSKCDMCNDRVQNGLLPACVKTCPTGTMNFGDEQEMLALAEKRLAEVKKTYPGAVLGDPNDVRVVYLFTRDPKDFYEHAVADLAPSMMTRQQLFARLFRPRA

[3] = tested on: Desulfovibrio desulfuricans (Dd) Mo-FDH3, wild-type natively-purified (Mo-FDH3^WT); conditions: cited from earlier work
[4] = pH 7.6, RT, 2 mM BV, 1.4 nM enzyme, Oliveira et al (2020)
[5] = pH 7.6, 37 °C, 7.5 mM BV, 35 nM enzyme, Rivas et al (2007)
[6] = pH 8.0, 22 °C, 5 mM BV, 1 nM enzyme, Maia et al (2016)
[7] = pH 8.0, 37 °C, 7.5 mM BV, 35 nM enzyme, Mota (2011)

For O=CO [formate], the Km [1] is listed as 10 µM, the kcat [1] is listed as 241 s⁻¹ and the kcat ([2]; pH 7.6, RT, 2 mM BV, 1.4 nM enzyme, Alvarez-Malmagro et al (2021)) is listed as 1144 s⁻¹. For the same compound, the kcat ([2]; pH 7.6, RT, 2 mM BV, 1.4 nM enzyme, Miller et al (2018)) was 1100 s⁻¹, the Km [2, 4] was 16.9 ± 2.8 µM and the kcat [2, 4] was 1310 ± 50 s⁻¹. For the same compound, the kcat ([2]; pH 7.6, RT, 2 mM BV, 1.4 nM enzyme, Szczesny et al (2019)) was 940 s⁻¹, the Km ([2]; value reported by Oliveira et al., as cited in text, BV) was 17 µM and the Km [3, 5] was 65 ± 8 µM. The kcat [3, 5] was 357 ± 18 s⁻¹, the Km [3, 6] was 57 µM and the kcat [3, 6] was 543 s⁻¹. The Km [3, 7] was 64 µM and the kcat [3, 7] was 347 s⁻¹.
